Measured values: ChEMBL document CHEMBL1155554, “(2R,3R,7Z)-2-Aminotetradec-7-ene-1,3-diol, a new amino alcohol from the caribbean sponge Haliclona vansoesti” (J Nat Prod, 2000)
Values after ≈ are worked out from the molar mass of the structure shown.

Test: Toxicity in brine shrimp
Type: organism-based
Settings: artemia, in vivo; read-out: LD50 (the source's name)

Compound: CCCCCC/C=C\CCC[C@@H](O)[C@H](N)CO
- LC50: 9 µg/mL (≈ 37 µM)
